# ChEMBL document CHEMBL4346735, “Discovery and pharmacological evaluation of indole derivatives as potent and selective RORγt inverse agonist for multiple autoimmune conditions” (Bioorg Med Chem Lett, 2019)
# pIC50: −log10 of the molar value. Active and inactive are the calls of the source. The rule behind the calls is not given here.
# Columns and labels:
# Mus musculus [1] = organism: Mus musculus; conditions: C57BL/6J, at 10 mg/kg
# Description: Immunosuppressive activity in MOG (35 to 55 residues)/pertussis toxin-induced experimental allergic encephalomyelitis C57BL/6J mouse model assessed as reduction in IL-17 production of CNS infiltrating CD4+ Th17 cells at 10 mg/kg, po qd by intracellular staining method
# [2] = Metabolic stability in rat liver microsomes assessed as parent compound remaining at 1 uM preincubated for 5 mins followed by NADPH addition after 30 mins by LC-MS/MS analysis; assay type: ADME, Microsome; conditions: read-out: Stability
# [3] = Tmax in mouse at 10 mg/kg, po; assay type: ADME, organism-based; conditions: in vivo
# Cytochrome P450 1A2 = target: T1, Cytochrome P450 1A2 (Homo sapiens, UniProt P05177); assay: Inhibition of CYP1A2 in human liver microsomes using phenacetin as substrate preincubated for 5 mins followed by NADPH addition measured after 10 mins by LC-MS/MS analysis
# T1 sequence (P05177 whole entry): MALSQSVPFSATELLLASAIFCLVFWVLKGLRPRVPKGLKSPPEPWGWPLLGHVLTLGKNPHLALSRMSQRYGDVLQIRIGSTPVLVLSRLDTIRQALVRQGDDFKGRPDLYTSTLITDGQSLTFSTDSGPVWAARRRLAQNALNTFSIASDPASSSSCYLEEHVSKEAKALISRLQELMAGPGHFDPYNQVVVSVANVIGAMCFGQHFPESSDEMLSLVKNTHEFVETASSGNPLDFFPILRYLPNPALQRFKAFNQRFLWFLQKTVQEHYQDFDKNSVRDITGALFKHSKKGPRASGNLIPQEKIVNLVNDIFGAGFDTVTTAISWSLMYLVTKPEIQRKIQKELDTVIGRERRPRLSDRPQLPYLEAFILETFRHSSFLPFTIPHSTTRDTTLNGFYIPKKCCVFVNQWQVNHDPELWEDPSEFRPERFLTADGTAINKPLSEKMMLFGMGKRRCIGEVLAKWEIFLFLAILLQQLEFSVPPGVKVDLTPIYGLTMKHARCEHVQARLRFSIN
# [4] = Half life in mouse at 3 mg/kg, iv; assay type: ADME, organism-based; conditions: in vivo
# [5] = Volume of distribution at steady state in mouse at 3 mg/kg, iv; assay type: ADME, organism-based; conditions: in vivo, read-out: Vdss
# Cytochrome P450 2C9 = Cytochrome P450 2C9 (Homo sapiens, UniProt P11712); assay: Inhibition of CYP2C9 in human liver microsomes using diclofenac as substrate preincubated for 5 mins followed by NADPH addition measured after 10 mins by LC-MS/MS analysis
# [6] = Metabolic stability in human liver microsomes assessed as parent compound remaining at 1 uM preincubated for 5 mins followed by NADPH addition after 30 mins by LC-MS/MS analysis; assay type: ADME, Microsome; conditions: read-out: Stability
# Cytochrome P450 2C19 = Cytochrome P450 2C19 (Homo sapiens, UniProt P33261); assay: Inhibition of CYP2C19 in human liver microsomes using (S)-mephenytoin as substrate preincubated for 5 mins followed by NADPH addition measured after 40 mins by LC-MS/MS analysis
# Cytochrome P450 3A4 = Cytochrome P450 3A4 (Homo sapiens, UniProt P08684); assay: Inhibition of CYP3A4 in human liver microsomes using testosterone as substrate preincubated for 5 mins followed by NADPH addition measured after 10 mins by LC-MS/MS analysis
# [7] = Cmax in mouse at 10 mg/kg, po; assay type: ADME, organism-based; parameters: dose 10 mg/kg, route oral; conditions: in vivo
# Mus musculus [8] = assay: Immunosuppressive activity in MOG (35 to 55 residues)/pertussis toxin-induced experimental allergic encephalomyelitis C57BL/6J mouse model assessed as IFN-gamma production of CNS infiltrating CD4+ Th1 cells at 10 mg/kg, po qd by intracellular staining method; assay type: functional, organism-based
# [9] = AUC (0 to 24 hrs) in mouse at 10 mg/kg, po; assay type: ADME, organism-based; parameters: dose 10 mg/kg, time < 24 hr, route oral; conditions: in vivo, 24 h
# [10] = Oral bioavailability in mouse at 10 mg/kg; assay type: ADME, organism-based; conditions: in vivo
# Mus musculus [11] = assay: Immunosuppressive activity in MOG (35 to 55 residues)/pertussis toxin-induced experimental allergic encephalomyelitis C57BL/6J mouse model assessed as reduction in disease severity score at 10 mg/kg, po qd measured at day 21 relative to dexamethasone; assay type: functional; conditions: 504 h
# [12] = Metabolic stability in mouse liver microsomes assessed as parent compound remaining at 1 uM preincubated for 5 mins followed by NADPH addition after 30 mins by LC-MS/MS analysis; assay type: ADME, Microsome; conditions: read-out: Stability
# Mus musculus [13] = assay: Immunosuppressive activity in MOG (35 to 55 residues)/pertussis toxin-induced experimental allergic encephalomyelitis C57BL/6J mouse model assessed as decrease in ratio of Th17:Th1 at 10 mg/kg, po qd by intracellular staining method; assay type: functional, organism-based
# Chain of Cytochrome P450 2C9 (P11712 whole entry): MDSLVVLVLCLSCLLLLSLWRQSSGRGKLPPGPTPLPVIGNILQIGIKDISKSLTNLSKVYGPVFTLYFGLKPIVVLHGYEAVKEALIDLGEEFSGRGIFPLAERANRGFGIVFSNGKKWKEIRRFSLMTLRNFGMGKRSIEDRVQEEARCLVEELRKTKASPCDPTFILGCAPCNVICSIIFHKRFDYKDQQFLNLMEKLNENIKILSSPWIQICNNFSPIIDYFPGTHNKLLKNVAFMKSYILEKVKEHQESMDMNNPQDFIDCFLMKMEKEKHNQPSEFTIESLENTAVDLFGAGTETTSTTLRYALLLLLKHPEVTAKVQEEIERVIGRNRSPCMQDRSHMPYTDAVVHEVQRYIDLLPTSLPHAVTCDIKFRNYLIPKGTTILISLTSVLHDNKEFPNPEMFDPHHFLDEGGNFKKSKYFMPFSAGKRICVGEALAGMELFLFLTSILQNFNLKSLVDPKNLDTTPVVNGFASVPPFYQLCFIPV
# Chain of Cytochrome P450 2C19 (P33261 whole entry): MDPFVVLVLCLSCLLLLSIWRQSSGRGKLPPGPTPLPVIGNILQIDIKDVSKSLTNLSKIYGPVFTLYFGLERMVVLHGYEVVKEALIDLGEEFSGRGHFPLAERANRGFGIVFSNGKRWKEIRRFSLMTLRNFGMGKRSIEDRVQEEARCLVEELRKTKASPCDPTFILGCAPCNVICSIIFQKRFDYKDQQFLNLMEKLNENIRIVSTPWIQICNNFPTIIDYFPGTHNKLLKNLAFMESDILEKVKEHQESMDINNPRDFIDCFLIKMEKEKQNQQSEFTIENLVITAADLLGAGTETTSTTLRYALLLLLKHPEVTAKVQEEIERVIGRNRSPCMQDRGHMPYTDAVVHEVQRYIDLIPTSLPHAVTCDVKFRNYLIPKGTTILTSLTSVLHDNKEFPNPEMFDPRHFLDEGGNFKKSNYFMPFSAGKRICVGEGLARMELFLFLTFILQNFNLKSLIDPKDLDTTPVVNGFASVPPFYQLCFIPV
# Chain of Cytochrome P450 3A4 (P08684 whole entry): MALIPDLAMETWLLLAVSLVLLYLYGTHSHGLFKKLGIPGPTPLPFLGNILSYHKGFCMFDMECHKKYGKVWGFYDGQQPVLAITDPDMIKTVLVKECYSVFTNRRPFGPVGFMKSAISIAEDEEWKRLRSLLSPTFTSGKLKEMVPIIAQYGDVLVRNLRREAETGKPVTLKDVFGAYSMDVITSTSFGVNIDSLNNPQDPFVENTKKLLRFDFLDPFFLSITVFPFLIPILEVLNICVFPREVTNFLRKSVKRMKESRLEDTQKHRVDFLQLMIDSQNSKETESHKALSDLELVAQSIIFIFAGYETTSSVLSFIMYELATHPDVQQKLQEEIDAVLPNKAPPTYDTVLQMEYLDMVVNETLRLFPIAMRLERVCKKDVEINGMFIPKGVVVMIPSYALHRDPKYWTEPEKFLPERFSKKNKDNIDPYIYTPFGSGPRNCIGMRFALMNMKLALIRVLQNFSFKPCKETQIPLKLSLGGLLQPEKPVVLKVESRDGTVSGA
smiles,measurement,setting,value
CCS(=O)(=O)c1ccc(CC(=O)Nc2cc(Cl)c(-c3ccccc3OC(F)(F)F)c(Cl)c2)cc1,inhibition,Mus musculus [1],Active
same,"remaining at 0.5 h, 1 µM",[2],65%
same,Tmax,[3],2 h
same,pIC50,Cytochrome P450 1A2,< 4.30
same,half-life,[4],10.7 h
same,Vd,[5],3.5 L/kg
same,pIC50,Cytochrome P450 2C9,5.68
same,"remaining at 0.5 h, 1 µM",[6],100%
same,pIC50,Cytochrome P450 2C19,5.02
same,pIC50,Cytochrome P450 3A4,< 4.30
same,Cmax,[7],3000 nM
same,inhibition,Mus musculus [8],inactive
same,AUC,[9],22.3 µM·h
same,F,[10],79%
same,inhibition in vivo at 10 mg/kg,Mus musculus [11],24%
same,"remaining at 0.5 h, 1 µM",[12],70%
same,inhibition,Mus musculus [13],Active
